{
  "source": "paper PMC9311798",
  "about": "“A Novel Class of Potent Anti-Tyrosinase Compounds with Antioxidant Activity, 2-(Substituted phenyl)-5-(trifluoromethyl)benzo[d]thiazoles: In Vitro and In Silico Insights” (Antioxidants, 2022)",
  "key": {"[1]": {"test_system": "B16F10 murine melanoma cells", "experiment": "B16F10 cell viability assay (EZ-Cytox)", "assay_type": "cell-based", "details": "concentrations ≤20 μM, 48 h", "method": "B16F10 murine melanoma cells were obtained from the American Type Culture Collection (ATCC, Manassas, VA, USA). Phosphate buffer solution (PBS), Dulbecco’s modified Eagle’s medium (DMEM), streptomycin, penicillin, trypsin, and fetal bovine serum (FBS) were purchased from Gibco/Thermo Fisher Scientific (Carlsbad, CA, USA). B16F10 cells were cultured in a DMEM solution comprising 10% heat-inactivated FBS, penicillin (100 IU/mL), and streptomycin (100 µg/mL), at 37 °C in a humidified 5% CO2 atmosphere. Experiments for anti-melanogenesis activity, cell viability, and anti-tyrosinase activity were assayed on these cells in 96- or 6-well culture plates.\nCell viability assays for B16F10 were performed using the EZ-Cytox assay (EZ-3000, DoGenBio, Seoul, Korea). In brief, B16F10 cells were seeded in a 96-well plate at a density of 1 × 10^4 cells/well, and cultured at 37 °C for 24 h in a humidified 5% CO2 atmosphere. The next day, B16F10 cells were exposed to six concentrations of 1a or 1b (0, 1, 2, 5, 10, or 20 μM), and incubated under the same conditions for 48 h. Then, the EZ-Cytox solution (10 μL) was added to each well, and the cells mixed with the EZ-Cytox solution were further incubated for 2 h. At 450 nm, optical densities were measured using a microplate reader (VersaMax^TM, Molecular Devices, Sunnyvale, CA, USA)."}, "[2]": {"biological_target": "T1, cellular tyrosinase in B16F10 cells (Mus musculus, UniProt P11344)", "T1 construct": "endogenous in cells; host or cells: B16F10 murine melanoma cells, stimulated with alpha-MSH and IBMX", "T1 sequence (P11344 19-533)": "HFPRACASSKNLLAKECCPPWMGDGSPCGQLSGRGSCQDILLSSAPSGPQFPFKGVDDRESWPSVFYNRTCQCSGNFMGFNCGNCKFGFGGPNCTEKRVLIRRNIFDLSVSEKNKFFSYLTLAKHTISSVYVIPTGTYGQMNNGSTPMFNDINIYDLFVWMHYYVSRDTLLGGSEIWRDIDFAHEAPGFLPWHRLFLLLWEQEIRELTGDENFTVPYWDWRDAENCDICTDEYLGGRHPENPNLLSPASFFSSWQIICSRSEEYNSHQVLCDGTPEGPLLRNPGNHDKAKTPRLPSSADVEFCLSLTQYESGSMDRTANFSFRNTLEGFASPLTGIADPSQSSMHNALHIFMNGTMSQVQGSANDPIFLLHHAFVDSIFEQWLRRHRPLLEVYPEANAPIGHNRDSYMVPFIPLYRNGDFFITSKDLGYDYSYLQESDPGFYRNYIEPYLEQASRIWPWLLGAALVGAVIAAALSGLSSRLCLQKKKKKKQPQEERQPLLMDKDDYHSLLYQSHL", "experiment": "Cellular tyrosinase activity (L-DOPA oxidation) in α-MSH/IBMX-stimulated cells", "assay_type": "cell-based, murine", "method": "Cellular tyrosinase activity was assessed by measuring the oxidation rate of L-DOPA as previously described, with minor modifications. In brief, B16F10 cells were seeded in a 6-well plate at 1 × 10^5 cells/well, and allowed to adhere to well bottoms for 24 h, as described in Section 2.3.5. […]. Cells were then rinsed twice with PBS, exposed to 100 µL of lysis buffer solution (90 µL of 50 mM phosphate buffer (pH 6.5), 5 µL of 2 mM PMSF, and 5 µL of 20% Triton X-100), and lysed at −80 °C for 30 min. After defrosting, cell lysates were transferred to microcentrifuge tubes and centrifuged at 12,000 rpm for 30 min at 4°C, and supernatants (80 µL) were mixed with 20 µL of L-DOPA (2 mg/mL) in a 96-well plate, and incubated for 10 min at 37 °C. Absorbances were measured at 475 nm using a microplate reader (VersaMax^TM, Molecular Devices, Sunnyvale, CA, USA)."}, "[3]": {"test_system": "B16F10 murine melanoma cells", "experiment": "Extracellular melanin content (melanin release into medium) in α-MSH/IBMX-stimulated cells", "assay_type": "cell-based", "method": "The anti-melanogenic activities of 1a and 1b were determined using a standard melanin content assay, with minor changes. Briefly, B16F10 cells were seeded in the wells of a 6-well plate at a density of 1 × 10^5 cells/well, and allowed to adhere to well bottoms over 24 h under the conditions used for cell culture (Section 2.3.5). […] Absorbances of culture media at 405 nm were used to determine extracellular melanin contents."}, "mushroom tyrosinase": {"biological_target": "T2, mushroom tyrosinase (Agaricus bisporus, UniProt C7FF04)", "T2 construct": "purchased Sigma-Aldrich", "T2 sequence (C7FF04 1-392 limits assumed)": "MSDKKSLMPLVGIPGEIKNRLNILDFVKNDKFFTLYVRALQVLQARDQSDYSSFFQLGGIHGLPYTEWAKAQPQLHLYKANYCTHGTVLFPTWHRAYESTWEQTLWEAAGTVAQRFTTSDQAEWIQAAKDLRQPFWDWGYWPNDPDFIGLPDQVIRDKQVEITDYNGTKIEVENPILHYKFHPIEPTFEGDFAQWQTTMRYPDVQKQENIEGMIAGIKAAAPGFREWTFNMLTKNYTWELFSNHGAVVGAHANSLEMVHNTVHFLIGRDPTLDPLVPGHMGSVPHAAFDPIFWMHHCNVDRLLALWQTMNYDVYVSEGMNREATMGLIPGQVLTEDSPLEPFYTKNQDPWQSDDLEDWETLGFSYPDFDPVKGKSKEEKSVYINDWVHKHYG", "experiment": "Mushroom tyrosinase inhibition assay", "assay_type": "biochemical", "method": "Mushroom tyrosinase inhibitory activity was determined as described previously, with minor modifications. L-Tyrosine was used as a substrate to determine enzyme activities. […] These dose-dependent inhibition experiments were carried out three times using three to five different concentrations of test compounds to determine IC50 values. Log–linear curves and their equations were derived from the observed percentages of inhibition."}, "[4]": {"test_system": "B16F10 murine melanoma cells", "experiment": "Intracellular melanin content in α-MSH/IBMX-stimulated cells", "assay_type": "cell-based", "method": "The cultured cells were rinsed with PBS twice and pellets were dissolved in 200 µL of 1N-NaOH solution containing 10% DMSO for 1 h at 60 °C. Cell lysates were then transferred to a 96-well plate, and the melanin absorbances were measured in aqueous DMSO at 405 nm using a microplate reader (VersaMax^TM, Molecular Devices, Sunnyvale, CA, USA)."}, "[5]": {"details": "10 µM, compared with kojic acid 20 µM"}, "[6]": {"details": "read-out: Mushroom tyrosinase inhibition (%)"}},
  "data": [
    {"compound": "Oc1ccc(-c2nc3cc(C(F)(F)F)ccc3s2)cc1", "note": "[Compound 1a, 4-(5-(Trifluoromethyl)benzo[d]thiazol-2-yl)phenol]", "values": [
      {"measurement": "cytotoxic effect on B16F10 cell viability", "setting": "[1]", "result": "Neither compound exhibited a significant cytotoxic effect"},
      {"measurement": "cellular tyrosinase activity", "setting": "[2]; [5]", "result": "reduced tyrosinase activity to that achieved by 20 µM kojic acid"},
      {"measurement": "effect on cellular tyrosinase activity", "setting": "[2]; 5, 10, 20 µM, IBMX + α-MSH, 48 h", "result": "significantly and concentration-dependently suppressed"},
      {"measurement": "melanin release", "setting": "[3]; 20 µM", "result": "reduced melanin release to control levels"},
      {"measurement": "effect on melanin content in media", "setting": "[3]; 5, 10, 20 µM, α-MSH (1 µM) + IBMX (200 µM), 48 h", "result": "concentration-dependently and significantly reduced melanin content increases"},
      {"measurement": "melting point", "result": "187.2 to 188.9", "unit": "°C"},
      {"measurement": "IC50", "setting": "mushroom tyrosinase; L-tyrosine as substrate", "result": "54.2 ± 0.82", "unit": "µM"},
      {"measurement": "inhibition at 10 µM", "setting": "mushroom tyrosinase; [6]", "result": "30.4 ± 0.31", "unit": "%"},
      {"measurement": "inhibition at 50 µM", "setting": "mushroom tyrosinase; [6]", "result": "48.2 ± 0.25", "unit": "%"},
      {"measurement": "inhibition of α-MSH/IBMX-induced intracellular melanin increase", "setting": "[4]; [5]", "result": "more potently inhibited α-MSH/IBMX-induced increases in melanin than kojic acid at 20 µM"},
      {"measurement": "effect on intracellular melanin content", "setting": "[4]; 5, 10, 20 µM, α-MSH + IBMX, 48 h", "result": "significantly and concentration-dependently reduced intracellular melanin increases"}
    ]}
  ]
}
